{"source": "paper PMC8495142", "about": "(Drug Design, Development and Therapy, 2021)", "key": {"[1]": {"tested_on": "CYP3A", "settings": "in vitro; cited from earlier work"}, "[2]": {"tested_on": "CYP2D6", "settings": "in vitro; cited from earlier work"}, "[3]": {"format": "in vitro ADME, beagle dog", "settings": "all four storage conditions, 2.5, 50 and 150 ng/mL"}}}
{"smiles": "CC[C@@H]1CN(C(=O)NCC(F)(F)F)C[C@@H]1c1cnc2cnc3[nH]ccc3n12", "note": "[Upadacitinib]", "values": [{"measurement": "Metabolism by CYP3A", "setting": "[1]", "value": "mainly metabolized by CYP3A"}, {"measurement": "Metabolism by CYP2D6", "setting": "[2]", "value": "a small part by CYP2D6"}, {"measurement": "Stability in beagle dog plasma (in words)", "setting": "[3]", "value": "stable"}]}
